Measurements taken from US8735411B2, “Macrocyclic benzofused pyrimidine derivatives” (AbbVie Inc., priority 2006, dated 2014).

Target: histamine H4 receptor (Homo sapiens, UniProt Q9H3N8)
Experiment: In vitro histamine H4 potency in FLIPR (Ca2+ flux, HEK-293 cells coexpressing Gαqi5)
Format: cell-based
Design: expressed in transfected cells
Conditions: Kb for antagonists and inverse agonists, EC50 for partial agonists
Text: There are many methods available to show the effectiveness of compounds as histamine H4 receptor ligands. Histamine H4 receptors from mammalian species have been cloned. Methods to clone, express, and assess the potency and functional activity of such cloned genes are well known to those skilled in the art of molecular biology. […] Before testing, cells are loaded with a Ca^+2 sensitive fluorescent dye, in this case Fluo-4. In the case of partial agonist or agonist ligands, addition of compound to the cells leads to the increase in intracellular Ca^+2 which is detected by FLIPR (Fluorescence Imaging Plate Reader; Molecular Devices, Sunnyvale, Calif.) technology. […] The fluorescence intensities measured before addition of the test compound are subtracted from the fluorescence intensities at later time points. Peak response values determined at each concentration of ligand are expressed as a percentage of the response obtained with the full agonist histamine. Concentration versus response data are analyzed to obtain compound potency as Kb values for antagonists and inverse agonists and as EC50 values for partial agonists.

SMILES | Potency [nM]
CN1CCN(c2nc(N)nc3c2CCc2ccccc2-3)CC1 [Example 42, 4-(4-Methyl-piperazin-1-yl)-5,6-dihydro-benzo[h]quinazolin-2-ylamine] | 13
Nc1nc2c(c(N3CCNCC3)n1)CCc1ccccc1-2 [Example 44, 4-Piperazin-1-yl-5,6-dihydro-benzo[h]quinazolin-2-ylamine] | 24
CN[C@@H]1CCN(c2nc(N)nc3c2CCOc2ccc(Cl)cc2-3)C1 [Example 45, 10-chloro-4-[(3R)-3-(methylamino)pyrrolidin-1-yl]-5,6-dihydro[1]benzoxepino[5,4-d]pyrimidin-2-amine] | 69
CN[C@@H]1CCN(c2nc(N)nc3c2CCOc2ccc(C)cc2-3)C1 [Example 46, 10-methyl-4-[(3R)-3-(methylamino)pyrrolidin-1-yl]-5,6-dihydro[1]benzoxepino[5,4-d]pyrimidin-2-amine] | 100
CN[C@@H]1CCN(c2nc(N)nc3c2CCOc2ccc(OC)cc2-3)C1 [Example 47, 10-methoxy-4-[(3R)-3-(methylamino)pyrrolidin-1-yl]-5,6-dihydro[1]benzoxepino[5,4-d]pyrimidin-2-amine] | 912
CN[C@@H]1CCN(c2nc(N)nc3c2CCOc2cc(Cl)ccc2-3)C1 [Example 48, 9-chloro-4-[(3R)-3-(methylamino)pyrrolidin-1-yl]-5,6-dihydro[1]benzoxepino[5,4-d]pyrimidin-2-amine] | 43
CN[C@@H]1CCN(c2nc(N)nc3c2CCOc2cc(C)ccc2-3)C1 [Example 49, 9-methyl-4-[(3R)-3-(methylamino)pyrrolidin-1-yl]-5,6-dihydro[1]benzoxepino[5,4-d]pyrimidin-2-amine] | 39
CN[C@@H]1CCN(c2nc(N)nc3c2CCOc2c(Cl)cccc2-3)C1 [Example 51, 8-chloro-4-[(3R)-3-(methylamino)pyrrolidin-1-yl]-5,6-dihydro[1]benzoxepino[5,4-d]pyrimidin-2-amine] | 41
CN[C@@H]1CCN(c2nc(N)nc3c2CCOc2c(C)cccc2-3)C1 [Example 52, 8-Methyl-4-((R)-3-methylamino-pyrrolidin-1-yl)-5,6-dihydro-7-oxa-1,3-diaza-dibenzo[a,c]cyclohepten-2-ylamine] | 56
CN[C@@H]1CCN(c2nc(N)nc3c2CCOc2c(OC)cccc2-3)C1 [Example 53, 8-methoxy-4-[(3R)-3-(methylamino)pyrrolidin-1-yl]-5,6-dihydro[1]benzoxepino[5,4-d]pyrimidin-2-amine] | 100
CN[C@@H]1CCN(c2nc(N)nc3c2CCCCc2ccccc2-3)C1 [Example 54, 4-[(3R)-3-(methylamino)pyrrolidin-1-yl]-5,6,7,8-tetrahydrobenzo[7,8]cycloocta[1,2-d]pyrimidin-2-amine] | 32
Nc1nc2c(c(N3CC[C@H](N)C3)n1)CCCCc1ccccc1-2 [Example 56, 4-[(3S)-3-aminopyrrolidin-1-yl]-5,6,7,8-tetrahydrobenzo[7,8]cycloocta[1,2-d]pyrimidin-2-amine] | 115
Nc1nc2c(c(N3CC(N)C3)n1)CCCCc1ccccc1-2 [Example 57, 4-(3-aminoazetidin-1-yl)-5,6,7,8-tetrahydrobenzo[7,8]cycloocta[1,2-d]pyrimidin-2-amine] | 562
Nc1nc2c(c(N3CC[C@@H]4CNC[C@@H]43)n1)CCCCc1ccccc1-2 [Example 58, 4-[(3aR,6aR)-hexahydropyrrolo[3,4-b]pyrrol-1(2H)-yl]-5,6,7,8-tetrahydrobenzo[7,8]cycloocta[1,2-d]pyrimidin-2-amine] | 182
Nc1nc2c(c(N3CC4CCCNC4C3)n1)CCCc1ccccc1-2 (stereo not shown) [Example 59, 4-octahydro-6H-pyrrolo[3,4-b]pyridin-6-yl-6,7-dihydro-5H-benzo[6,7]cyclohepta[1,2-d]pyrimidin-2-amine] | 44
Nc1nc2c(c(N3CCC4(CCNC4)CC3)n1)CCCc1ccccc1-2 [Example 60, 4-(2,8-diazaspiro[4.5]dec-8-yl)-6,7-dihydro-5H-benzo[6,7]cyclohepta[1,2-d]pyrimidin-2-amine] | 724
Nc1nc2c(c(N3CCCNCCC3)n1)CCCc1ccccc1-2 [Example 61, 4-(1,5-diazocan-1-yl)-6,7-dihydro-5H-benzo[6,7]cyclohepta[2-d]pyrimidin-2-amine] | 8.7
CN1CCC(Nc2nc(N)nc3c2CCCc2ccccc2-3)CC1 [Example 65, N^4-(1-methylpiperidin-4-yl)-6,7-dihydro-5H-benzo[6,7]cyclohepta[1,2-d]pyrimidine-2,4-diamine] | 13
CN1[C@@H]2CC[C@H]1CC(Nc1nc(N)nc3c1CCCc1ccccc1-3)C2 (stereo partly drawn) [Example 66, N^4-[(1R,5S)-8-methyl-8-azabicyclo[3.2.1]oct-3-yl]-6,7-dihydro-5H-benzo[6,7]cyclohepta[1,2-d]pyrimidine-2,4-diamine] | 17
CN1CCCC(Oc2nc(N)nc3c2CCCc2ccccc2-3)C1 (stereo not shown) [Example 69, 4-(1-Methyl-piperidin-3-yloxy)-6,7-dihydro-5H-benzo[6,7]cyclohepta[1,2-d]pyrimidin-2-ylamine] | 3162
CN1CC[C@H](Oc2nc(N)nc3c2CCCc2ccccc2-3)C1 [Example 71, 4-((S)-1-Methyl-pyrrolidin-3-yloxy)-6,7-dihydro-5H-benzo[6,7]cyclohepta[1,2-d]pyrimidin-2-ylamine] | 263
Nc1nc(OC2CCNCC2)c2c(n1)-c1ccccc1CCC2 [Example 72, 4-(Piperidin-4-yloxy)-6,7-dihydro-5H-benzo[6,7]cyclohepta[1,2-d]pyrimidin-2-ylamine] | 1097
Nc1nc(O[C@H]2CCNC2)c2c(n1)-c1ccccc1CCC2 [Example 73, 4-((S)-Pyrrolidin-3-yloxy)-6,7-dihydro-5H-benzo[6,7]cyclohepta[1,2-d]pyrimidin-2-ylamine] | 468
CN(C)CCOc1nc(N)nc2c1CCCc1ccccc1-2 [Example 74, 4-(2-Dimethylamino-ethoxy)-6,7-dihydro-5H-benzo[6,7]cyclohepta[1,2-d]pyrimidin-2-ylamine] | 219
Nc1nc2c(c(N3CC4CCNCC4C3)n1)CCCc1ccccc1-2 (stereo not shown) [Example 79, 4-(Octahydro-pyrrolo[3,4-c]pyridin-2-yl)-6,7-dihydro-5H-benzo[6,7]cyclohepta[1,2-d]pyrimidin-2-ylamine] | 89

Results, then the compound that gave them:

Potency [nM] | SMILES
56 | CN[C@@H]1CCN(c2nc(N)nc3c2CCOc2cc(OC)ccc2-3)C1 [Example 50, 9-methoxy-4-[(3R)-3-(methylamino)pyrrolidin-1-yl]-5,6-dihydro[1]benzoxepino[5,4-d]pyrimidin-2-amine]
123 | Nc1nc2c(c(N3CC[C@@H](N)C3)n1)CCCCc1ccccc1-2 [Example 55, 4-[(3R)-3-aminopyrrolidin-1-yl]-5,6,7,8-tetrahydrobenzo[7,8]cycloocta[1,2-d]pyrimidin-2-amine]
389 | Nc1nc2c(c(N3CCC(N)CC3)n1)CCCc1ccccc1-2 [Example 62, 4-(4-aminopiperidin-1-yl)-6,7-dihydro-5H-benzo[6,7]cyclohepta[1,2-d]pyrimidin-2-amine]
269 | Nc1nc(NCCC2CCN2)c2c(n1)-c1ccccc1CCC2 (stereo not shown) [Example 63, N^4-(2-azetidin-2-ylethyl)-6,7-dihydro-5H-benzo[6,7]cyclohepta[1,2-d]pyrimidine-2,4-diamine]
1549 | Nc1nc(NC[C@H]2CCN2)c2c(n1)-c1ccccc1CCC2 [Example 64, N^4-[(2R)-azetidin-2-ylmethyl]-6,7-dihydro-5H-benzo[6,7]cyclohepta[1,2-d]pyrimidine-2,4-diamine]
69 | CC1CCN(c2nc(N)nc3c2CCCc2ccccc2-3)CCN1 (stereo not shown) [Example 67, 4-(5-methyl-1,4-diazepan-1-yl)-6,7-dihydro-5H-benzo[6,7]cyclohepta[1,2-d]pyrimidin-2-amine]
15 | CN1CCC(Oc2nc(N)nc3c2CCCc2ccccc2-3)CC1 [Example 68, 4-(1-Methyl-piperidin-4-yloxy)-6,7-dihydro-5H-benzo[6,7]cyclohepta[1,2-d]pyrimidin-2-ylamine]
37 | CN1CC[C@@H](Oc2nc(N)nc3c2CCCc2ccccc2-3)C1 [Example 70, 4-((R)-1-Methyl-pyrrolidin-3-yloxy)-6,7-dihydro-5H-benzo[6,7]cyclohepta[1,2-d]pyrimidin-2-ylamine]
4898 | Nc1nc2c(c(N3CCC4(CCCCN4)CC3)n1)CCCc1ccccc1-2 [Example 75, 4-(1,9-Diaza-spiro[5.5]undec-9-yl)-6,7-dihydro-5H-benzo[6,7]cyclohepta[1,2-d]pyrimidin-2-ylamine]
55 | CN(C)[C@@H]1CCN(c2nc(N)nc3c2CCCc2ccccc2-3)C1 [Example 76, 4-((R)-3-Dimethylamino-pyrrolidin-1-yl)-6,7-dihydro-5H-benzo[6,7]cyclohepta[1,2-d]pyrimidin-2-ylamine]
9333 | Nc1nc2c(c(N3CC4(CCCNC4)C3)n1)CCCc1ccccc1-2 [Example 77, 4-(2,6-Diaza-spiro[3.5]non-2-yl)-6,7-dihydro-5H-benzo[6,7]cyclohepta[1,2-d]pyrimidin-2-ylamine]
891 | Nc1nc2c(c(N3CC4(CCCCN4)C3)n1)CCCc1ccccc1-2 [Example 78, 4-(2,5-Diaza-spiro[3.5]non-2-yl)-6,7-dihydro-5H-benzo[6,7]cyclohepta[1,2-d]pyrimidin-2-ylamine]
